The results in this text go back to PubChem BioAssay AID206 (DTP/NCI, 2004).

Values joined by “and” are separate entries in the source; they are usually repeats but may differ in a detail not shown here. Identical values can stand only once. Inconclusive results are not listed.

This experiment relates to nude mice, HT29 intrarenal xenograft, tumor weight T/C. The experiment is described as follows: NCI In Vivo Anticancer Drug Screen. Data for tumor model HT29;CX-1 Human Adenocarcinoma (MER+) (intrarenal inoculation) in NU/NU Swiss (nude) mice. The settings on record: endpoint: mean tumor weight change, higher = larger tumour. A digest of the protocol: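 Compounds were given to mice carrying transplantable tumors; a vehicle-dosed group served as control. The endpoint measured in each group was compared as a T/C quotient.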

[1] abbreviates: dose: 150.0 mg/kg/injection, schedule: Q04DX004 (sc), vehicle: saline with Tween-80.
[2] abbreviates: dose: 150.0 mg/kg/injection, schedule: Q04DX004 (sc), vehicle: saline.
The mark [3] stands for this setting: dose: 300.0 mg/kg/injection, schedule: Q04DX004 (sc), vehicle: saline.

On to `CN(C)c1nc(N(C)C)nc(N(C)C)n1`, for which the T/C was 90 % of control (dose: 15.0 mg/kg/injection, schedule: Q01DX010 (sc), vehicle: saline with Tween-80); 81 % of control and 101 % of control and 222 % of control (dose: 30.0 mg/kg/injection, schedule: Q01DX010 (sc), vehicle: saline with Tween-80).
In the case of `C[C@]12C=CC(=O)C=C1CC[C@@H]1[C@@H]2[C@@H](O)C[C@@]2(C)[C@H]1CC[C@]2(O)C(=O)CO`, the T/C reads like this: (dose: 12.5 mg/kg/injection, schedule: Q01DX010 (sc), vehicle: Klucel (hydroxypropylcellulose) (HPC)) 79 % of control; (dose: 25.0 mg/kg/injection, schedule: Q01DX010 (sc), vehicle: Klucel (hydroxypropylcellulose) (HPC)) 112 % of control; (dose: 50.0 mg/kg/injection, schedule: Q01DX010 (sc), vehicle: Klucel (hydroxypropylcellulose) (HPC)) 66 % of control; (dose: 100.0 mg/kg/injection, schedule: Q01DX010 (sc), vehicle: Klucel (hydroxypropylcellulose) (HPC)) 83 % of control.
For `O=c1cnn(C2OC(CO)C(O)C2O)c(=O)[nH]1` (stereo unspecified), the T/C is, setting by setting: (dose: 200.0 mg/kg/injection, schedule: Q01DX010 (sc), vehicle: saline) 71 % of control; (dose: 400.0 mg/kg/injection, schedule: Q01DX010 (sc), vehicle: saline) 100 % of control; (dose: 800.0 mg/kg/injection, schedule: Q01DX010 (sc), vehicle: saline) 97 % of control; (dose: 1600.0 mg/kg/injection, schedule: Q01DX010 (sc), vehicle: saline) 34 % of control.
`COc1c(CNC(=O)CCl)cc2[nH]c(C)cc2c1CNC(=O)CCl`: the T/C is 192 % of control (dose: 300.0 mg/kg/injection, schedule: Q04DX004 (sc), vehicle: Klucel (hydroxypropylcellulose) (HPC)) and 124 % of control (dose: 600.0 mg/kg/injection, schedule: Q04DX004 (sc), vehicle: Klucel (hydroxypropylcellulose) (HPC)).
Consider `Cc1ccc(NCC2(/N=C/c3ccccc3)OC(CO)C(O)C2O)cc1` (stereo unspecified), for which the T/C (dose: 200.0 mg/kg/injection, schedule: Q04DX004 (sc), vehicle: Klucel (hydroxypropylcellulose) (HPC)) is 81 % of control; the T/C (dose: 400.0 mg/kg/injection, schedule: Q04DX004 (sc), vehicle: Klucel (hydroxypropylcellulose) (HPC)) is 70 % of control; the T/C (dose: 800.0 mg/kg/injection, schedule: Q04DX004 (sc), vehicle: Klucel (hydroxypropylcellulose) (HPC)) was 92 % of control; the T/C (dose: 1600.0 mg/kg/injection, schedule: Q04DX004 (sc), vehicle: Klucel (hydroxypropylcellulose) (HPC)) was 94 % of control.
Consider `CCCCCc1cc(O)c2c(c1)OC(C)(C)[C@@H]1CCC(C)=C[C@@H]21`, for which the T/C reads like this: (dose: 150.0 mg/kg/injection, schedule: Q04DX004 (sc), vehicle: other) 117 % of control; (dose: 300.0 mg/kg/injection, schedule: Q04DX004 (sc), vehicle: other) 76 % of control; (dose: 600.0 mg/kg/injection, schedule: Q04DX004 (sc), vehicle: other) 68 % of control; (dose: 1200.0 mg/kg/injection, schedule: Q04DX004 (sc), vehicle: other) 36 % of control.
As for `COc1ccc2cc1Oc1ccc(cc1)C[C@H]1c3cc(c(OC)cc3CCN1C)Oc1c(OC)c(OC)cc3c1[C@H](C2)N(C)CC3`, the T/C is 102 % of control (dose: 100.0 mg/kg/injection, schedule: Q01DX010 (sc), vehicle: saline with Tween-80); 33 % of control (dose: 200.0 mg/kg/injection, schedule: Q01DX010 (sc), vehicle: saline with Tween-80); 28 % of control (dose: 400.0 mg/kg/injection, schedule: Q01DX010 (sc), vehicle: saline with Tween-80); 27 % of control (dose: 800.0 mg/kg/injection, schedule: Q01DX010 (sc), vehicle: saline with Tween-80).
On to `CS(=O)(=O)c1ncc(Br)cn1`, for which the T/C by setting is: (dose: 62.5 mg/kg/injection, schedule: Q04DX004 (sc), vehicle: saline) 83 % of control; (dose: 75.0 mg/kg/injection, schedule: Q04DX004 (sc), vehicle: saline with Tween-80) 99 % of control; (dose: 125.0 mg/kg/injection, schedule: Q04DX004 (sc), vehicle: saline) 109 % of control; under setting [1], 109 % of control; (dose: 250.0 mg/kg/injection, schedule: Q04DX004 (sc), vehicle: saline) 92 % of control; (dose: 300.0 mg/kg/injection, schedule: Q04DX004 (sc), vehicle: saline with Tween-80) 57 % of control. For the same compound, where the note is “dose: 500.0 mg/kg/injection, schedule: Q04DX004 (sc), vehicle: saline”, the T/C is 89 % of control.
For `CCOC(=O)c1cn(C)c2c1C(O)=C(C(=O)OC)CC(=O)N2`, the T/C reads like this: (dose: 225.0 mg/kg/injection, schedule: Q04DX004 (sc), vehicle: saline with Tween-80) 95 % of control; (dose: 450.0 mg/kg/injection, schedule: Q04DX004 (sc), vehicle: saline with Tween-80) 52 % of control; (dose: 1800.0 mg/kg/injection, schedule: Q04DX004 (sc), vehicle: saline with Tween-80) 62 % of control.
For `COC1CC(CC2CCC(C)C(C(C)C(=O)O)O2)OC2(OC(C)(C3CCC(C)(C4OC(C5OC(O)(CO)C(C)CC5C)CC4C)O3)CC2C)C1C` (stereo unspecified), the T/C was 34 % of control (dose: 3.75 mg/kg/injection, schedule: Q04DX004 (sc), vehicle: Klucel (hydroxypropylcellulose) (HPC)) and 107 % of control (dose: 7.5 mg/kg/injection, schedule: Q04DX004 (sc), vehicle: Klucel (hydroxypropylcellulose) (HPC)).
As for `CCCCCCCCCCCC(=O)NC1CC(O[C@H]2C[C@](O)(C(=O)CO)Cc3c(O)c4c(c(O)c32)C(=O)c2c(OC)cccc2C4=O)OC(C)C1O` (stereo partly specified), the T/C was 105 % of control (dose: 100.0 mg/kg/injection, schedule: Q01DX010 (sc), vehicle: water); 68 % of control (dose: 200.0 mg/kg/injection, schedule: Q01DX010 (sc), vehicle: water); 26 % of control (dose: 400.0 mg/kg/injection, schedule: Q01DX010 (sc), vehicle: water).
On to `Nc1ncn(C2CC(O)C(CO)O2)c(=O)n1` (stereo unspecified), for which, under “dose: 0.2 mg/kg/injection, schedule: Q01DX010 (sc), vehicle: saline”, the T/C was 84 % of control.
Turning to `CC1OC1C(=O)C1(O)C(C)C(O)C23OC2(C(O)c2c(O)cccc2C3=O)C1O` (stereo unspecified), the T/C (dose: 12.0 mg/kg/injection, schedule: Q04DX004 (sc), vehicle: Klucel (hydroxypropylcellulose) (HPC)) was 172 % of control; the T/C (dose: 24.0 mg/kg/injection, schedule: Q04DX004 (sc), vehicle: Klucel (hydroxypropylcellulose) (HPC)) is 99 % of control; the T/C (dose: 48.0 mg/kg/injection, schedule: Q04DX004 (sc), vehicle: Klucel (hydroxypropylcellulose) (HPC)) is 92 % of control.
In the case of `N=C(N)Sc1cc(O)ccc1O`, the T/C runs as follows: (dose: 75.0 mg/kg/injection, schedule: Q04DX004 (sc), vehicle: saline) 49 % of control; under setting [2], 54 % of control; under setting [3], 54 % of control.
For the compound `Nc1ncnc2c1ncn2C1C=C(CO)C(O)C1O` (stereo unspecified), the T/C by setting is: (dose: 3.75 mg/kg/injection, schedule: Q04DX004 (sc), vehicle: saline) 76 % of control; (dose: 7.5 mg/kg/injection, schedule: Q04DX004 (sc), vehicle: saline) 103 % of control; (dose: 15.0 mg/kg/injection, schedule: Q04DX004 (sc), vehicle: saline) 81 % of control.
In the case of `NC(CCC(=O)NC(CS)C(=O)NCC(=O)O)C(=O)O` (stereo unspecified), the T/C is 78 % of control under setting [2]; 168 % of control under setting [3]; 87 % of control (dose: 600.0 mg/kg/injection, schedule: Q04DX004 (sc), vehicle: saline).
Regarding `COc1cc(C(=O)N/N=C/c2cccc([N+](=O)[O-])c2)cc(OC)c1OC`, the T/C is, setting by setting: under setting [1], 91 % of control; (dose: 600.0 mg/kg/injection, schedule: Q04DX004 (sc), vehicle: saline with Tween-80) 70 % of control; (dose: 1200.0 mg/kg/injection, schedule: Q04DX004 (sc), vehicle: saline with Tween-80) 120 % of control.
With `COC(=O)[C@@]12OC[C@]34[C@H]([C@@H](O)[C@@H]1O)[C@@]1(C)CC(=O)C(O)=C(C)[C@@H]1C[C@H]3OC(=O)[C@H](OC(=O)/C=C(\C)C(C)C)[C@@H]24`, the T/C (dose: 0.25 mg/kg/injection, schedule: Q04DX004 (sc), vehicle: saline + alcohol) was 67 % of control; the T/C (dose: 0.5 mg/kg/injection, schedule: Q04DX004 (sc), vehicle: saline with Tween-80) is 83 % of control; the T/C (dose: 1.0 mg/kg/injection, schedule: Q04DX004 (sc), vehicle: saline + alcohol) was 49 % of control and 62 % of control; the T/C (dose: 1.0 mg/kg/injection, schedule: Q04DX004 (sc), vehicle: saline with Tween-80) is 89 % of control; the T/C (dose: 2.0 mg/kg/injection, schedule: Q04DX004 (sc), vehicle: saline + alcohol) was 53 % of control and 65 % of control; the T/C (dose: 4.0 mg/kg/injection, schedule: Q04DX004 (sc), vehicle: saline + alcohol) is 72 % of control.
